According to patent US8216587B1, “Method of vaccination” (PCI Biotech AS, priority 1999, dated 2012):

Assays:
THX cells = experiment: Photochemically induced GFP expression after pEGFP-N1-pLys transfection (flow cytometry); format: cell-based; conditions: for change in GFP expression with photosensitiser and light: pEGFP-N1-pLys complex plus photosensitiser and light, FIG. 5a, 5b; for fraction of the cells positive for GFP: AlPcS2a plus pEGFP-N1-pLys complex
Experimental: Plasmid-pLys complexes (charge ratio, 1.7) were prepared by gently mixing 5 μg plasmid (pEGFP-N1; Clontech Laboratories, Inc., Palo Alto, Calif.) in 75 μl of HBS with 5.3 μg pLys (MW 20700; Sigma, St. Louis, Mo.) in 75 μl of HBS. The solutions were incubated for 30 min at room temperature, diluted with culture medium and added to the cells.
THX cells were incubated with 20 μg/ml AlPcS2a for 18 hours at 37° C., washed and incubated in sensitizer-free medium for 3 hours before incubation with plasmid-pLys complexes for 2 hours. The pEGFP-N1/pLys treated THX cells were washed once and incubated for 2 hours in culture medium without additions before exposure to light. The cells were incubated at 37° C. for 2 days, subcultured and further incubated for an additional 5 days before analysis of GFP expression by flow cytometry.
The cells were trypsinised, centrifuged, resuspended in 400 μl of culture medium and filtered through a 50 μm mesh nylon filter. The cells were then analysed in a FACStar plus flow cytometer (Becton Dickinson). Green Fluorescent Protein (GFP) was measured through a 510-530 nm filter after excitation with an argon laser (200 mW) tuned on 488 nm. AlPcS2a was measured through a 650 nm longpass filter after excitation with a krypton laser (50 mW) tuned on 351-356 nm. Cell doublets were discriminated from single cells by gating on the pulse width of the GFP fluorescence signal. The data were analysed with PC Lysys II software (Becton Dickinson).
The expression of GFP was analysed by flow cytometry (FIGS. 5a and b) and fluorescence microscopy (data not shown). […] The fraction of the cells that was positive for this reporter molecule increased from 1% at no light treatment to 50% after a 5-min light exposure. […] Consequently, in a light-directed manner, PCI can substantially increase the efficiency of transfection of a functional gene to THX cells.

NHIK 3025 cells = experiment: PCI-induced release of endocytosed HRP into the cytosol; format: cell-based, human; conditions: 3.2 μg/ml TPPS2a and 1 mg/ml HRP for 18 h, then light; FIG. 4
Experimental: In this experiment NHIK 3025 cells (carcinoma cells in situ from human cervix) were treated with the photosensitising agent TPPS2a (3.2 μg/ml) and 1 mg/ml HRP for 18 hours. HRP activity was measured according to the procedure described in Steinman et al., J. Cell Biol., 68: 665-687, 1976. Cytosol was separated from cytosol-free cell corpses by electropermeabilisation and a density centrifugation technique (Berg et al., Int. J. Cancer 59: 814-822, 1994).

BL2-G-E6 cells = experiment: Photochemically induced relocalisation of fluorescein-labelled ras peptide (fluorescence microscopy); format: cell-based, mouse; conditions: peptide plus AlPcS2a; after a 4-min exposure to red light
Experimental: Two different light sources were used for treatment of the cells, both consisting of a bank of 4 fluorescent tubes.
The cells were analysed by fluorescence microscopy as described in Berg. K., et al., Biochem. Biophys. Acta., 1370: 317-324, 1998. For analysis of fluorescein-labelled molecules the microscope was equipped with a 450-490 nm excitation filter, a 510 nm dichroic beam splitter and a 510-540 nm band pass emission filter.
BL2-G-E6 cells were incubated with 30 μg/ml of the fluorescein-labelled p21^ras-derived peptide for 18 hours followed by 20 μg/ml AlPcS2a for 18 hours and 1 hour in drug-free medium before exposure to red light.
To evaluate PCI for cytosolic delivery of cancer-specific peptides, a fluorescein-labelled p21^ras peptide encompassing residues 5-21 and containing a Val^12 mutation (G12V) was used (Gjertsen, M. K., et al., Int. J. Cancer, 72: 784-790, 1997). […] Similar effects were not observed in cells exposed to the fluorescein-labelled ras peptide and light only (data not shown).

Row | Compound | change in GFP expression with photosensitiser and light (THX cells) | fraction of endocytosed HRP released into the cytosol (NHIK 3025 cells) | localisation after light exposure (BL2-G-E6 cells) | fraction of the cells positive for GFP (THX cells; after a 5-min light exposure) | fraction of the cells positive for GFP (THX cells; no light treatment)
1 | Oc1cccc(-c2c3nc(c(-c4cccc(O)c4)c4ccc([nH]4)c(-c4cccc(O)c4)c4nc(c(-c5cccc(O)c5)c5ccc2[nH]5)C=C4)C=C3)c1 [3-THPP] | only a minor increase | – | – | – | –
2 | Horseradish Peroxidase [HRP] | – | > 60% | – | – | –
3 | aluminum phthalocyanine with 2 sulfonate groups on adjacent phenyl rings [AlPcS2a] | strong increase | – | located diffusely in the cytoplasm | 50% | 1%
